CC50, EC50 and selectivity ratio data for 15 molecules are collected here from ChEMBL document CHEMBL4390707, “Synthesis and comparison of substituted 1,2,3-dithiazole and 1,2,3-thiaselenazole as inhibitors of the feline immunodeficiency virus (FIV) nucleocapsid protein as a model for HIV infection” (Bioorg Med Chem Lett, 2019).

A short description of series [1]: Cytotoxicity against cat CRFK cells measured after 24 hrs by MTT assay. In kind it is cell-based, Felis catus.
A short description of series [2]: Inhibition of nucleocapsin protein in FIV infected in cat FL-4 cells assessed as reduction in viral RNA replication measured after 7 days by qRT-PCR analysis. In kind it is cell-based. The note with it: Feline immunodeficiency virus, FL-4, 168 h.
Series [3] can be described thus: Therapeutic index, ratio of CC50 for cat FL-4 cells to EC50 for inhibition of nucleocapsin protein in FIV infected in cat FL-4 cells. In kind it is toxicity, cell-based. Conditions: FL-4 cells (FIV infected for EC50), read-out: Ratio CC50/EC50.
The nature of series [4]: Cytotoxicity against cat FL-4 cells measured after 7 days by MTT assay. In kind it is cell-based, Felis catus.

Consider `Clc1c2ssnc-2c2ccccc12`, for which the CC50 at 24 h in series [1] is more than 100 µM. The EC50 in series [2] was determined as 1.4 µM. In addition, in series [3], the selectivity ratio came to 36.3. The same molecule had a CC50 at 168 h in series [4] of 49 µM.

Molecule `CCOC(=O)c1c2nssc-2c(Cl)c1Cl` yielded a CC50 at 24 h in series [1] of more than 100 µM. Also, in series [2], the EC50 was found to be 0.31 µM. The selectivity ratio in series [3] stood at 11.4. Further, in series [4], the midpoint of cytotoxicity, the CC50 at 168 h, lay at 3.5 µM.

For `CCOC(=O)c1c2n[se]sc-2c(Cl)c1Cl`, the CC50 at 24 h in series [1] was more than 100 µM. Moreover, in series [2], the EC50 is 0.082 µM. Besides, the selectivity ratio in series [3] was determined as 61.9. The CC50 at 168 h in series [4] worked out at 5.1 µM.

With `N#Cc1c2n[se]sc-2c(Cl)c1Cl`, the CC50 at 24 h in series [1] was more than 100 µM. Besides, the EC50 in series [2] is 3.8 µM. Besides, the selectivity ratio in series [3] turned out to be 4.7. The CC50 at 168 h in series [4] worked out at 18 µM.

For the molecule `Clc1c2s[se]nc-2c2ccccc12`, in series [1], half-maximal cytotoxicity (CC50 at 24 h) was put at 98 µM. The EC50 in series [2] was determined as 1.2 µM. Further, the selectivity ratio in series [3] is 4.6. The molecule further displayed a CC50 at 168 h in series [4] of 5.7 µM.

In series [1], `ClC1=C2SSN=C2c2ccccc2C(Cl)=C1Cl` returned a CC50 at 24 h of more than 100 µM. Moreover, the EC50 in series [2] amounted to 3 µM. In addition, the selectivity ratio in series [3] stood at 3.1. Moreover, the CC50 at 168 h in series [4] came to 9.3 µM.

Consider `c1ccc2c(c1)N=C1S[Se]N=C1O2`, for which, in series [1], the CC50 at 24 h is more than 100 µM. The EC50 in series [2] stood at 0.24 µM. Moreover, in series [3], the selectivity ratio turned out to be 24. In series [4], this molecule yielded a CC50 at 168 h of 5.8 µM.

Take `N#Cc1c2nssc-2c(Cl)c1Cl`: the CC50 at 24 h in series [1] is more than 100 µM. For the same molecule, the EC50 in series [2] stood at 1.5 µM. For the same molecule, in series [3], the selectivity ratio is 26.8. This molecule also yielded a CC50 at 168 h in series [4] of 39 µM.

On to `ClC1=C2S[Se]N=C2c2ccccc2C(Cl)=C1Cl`, for which, in series [1], the CC50 at 24 h was more than 100 µM. Besides, the EC50 in series [2] came to 0.25 µM. Besides, in series [3], the selectivity ratio was determined as 3.3. Further, in series [4], the CC50 at 168 h is 0.83 µM.

As to `c1ccc(-c2c3ssnc-3c3ccccc23)cc1`, the CC50 at 24 h in series [1] is more than 100 µM. Moreover, the EC50 in series [2] was 25.7 µM. In series [3], the selectivity ratio was more than 4. Further, in series [4], the CC50 at 168 h was more than 100 µM.

In series [1], `c1ccc2c(c1)N=C1SSN=C1O2` displayed a CC50 at 24 h of more than 100 µM. Moreover, in series [2], the EC50 is 4 µM. Besides, the selectivity ratio in series [3] came out at 14. In addition, the CC50 at 168 h in series [4] amounted to 57 µM.

In turn, `c1ccc(-c2c3s[se]nc-3c3ccccc23)cc1` displayed a CC50 at 24 h in series [1] of 56 µM. Further, the EC50 in series [2] was determined as 0.26 µM. Moreover, the selectivity ratio in series [3] was 194. Also, in series [4], the CC50 at 168 h came to 50 µM.

Regarding `Clc1c2nssc-2c(Cl)c1Cl`, in series [1], it took 68 µM to reach half-maximal cytotoxicity (CC50 at 24 h). In addition, the EC50 in series [2] was 1.6 µM. Moreover, the selectivity ratio in series [3] was 3.8. Also, in series [4], half-maximal cytotoxicity (CC50 at 168 h) was put at 6.1 µM.

In series [1], `Clc1c2n[se]sc-2c(Cl)c1Cl` had a CC50 at 24 h of 62 µM. Besides, in series [2], the EC50 came out at 1.2 µM. Besides, the selectivity ratio in series [3] stood at 5.4. For the same molecule, in series [4], the midpoint of cytotoxicity, the CC50 at 168 h, lay at 6.5 µM.

In turn, `Cc1cn([C@H]2C[C@H](N=[N+]=[N-])[C@@H](CO)O2)c(=O)[nH]c1=O` [ZIDOVUDINE] showed a CC50 at 24 h in series [1] of more than 100 µM. Also, the EC50 in series [2] was 2.7 µM. Moreover, in series [3], the selectivity ratio is more than 37. Moreover, the CC50 at 168 h in series [4] is more than 100 µM.
